Source: doi:10.1101/2023.02.27.530254, “Large library docking for cannabinoid-1 receptor agonists with reduced side effects” (bioRxiv, 2024)
Values joined by “and” are separate entries in the source; they are usually repeats but may differ in a detail not shown here. Equal values may be shown once. Read-outs that look alike come from different tables or passages of the source.

Experiments:
[1] = Pharmacokinetics in plasma, brain and CSF; assay type: in vivo, CD-1 mice; conditions: 0.2 mg/kg i.p., mice; for half-life: in vivo
Method: The batches of working formulations were prepared 5–10 minutes prior to the in vivo study. […] There was also a one mouse control group. All animals were fasted for 4 h before dosing. Mice were injected i.p. with 2,2,2-tribromoethanol at the dose of 150 mg/kg prior to drawing CSF and blood. Blood collection was performed from the orbital sinus in microtainers containing K3EDTA. CSF was collected under a stereomicroscope from cisterna magna using 1 mL syringes. Animals were sacrificed by cervical dislocation after the blood samples collection. After this, right lobe brain samples were collected and weighted. All samples were immediately processed, flash-frozen and stored at −70°C until subsequent analysis.
Plasma samples (40 μL) were mixed with 200 μL of internal standard solution. After mixing by pipetting and centrifuging for 4 min at 6,000 rpm, supernatant was injected into LC-MS/MS system. […] After this, the samples were centrifuged for 4 min at 14,000 rpm, and supernatant was injected into LC-MS/MS system. CSF samples (4 μL) were mixed with 100 μL of IS(80) solution. After mixing by pipetting and centrifuging for 4 min at 6,000 rpm, 1–6 μL of each supernatant was injected into LC-MS/MS system.
Analyses of plasma, brain and CSF samples were conducted at Enamine/Bienta. The concentrations of compounds in samples were determined using high performance liquid chromatography/tandem mass spectrometry (HPLC-MS/MS) method. Data acquisition and system control was performed using Analyst 1.6.3 software (AB Sciex, Canada). The concentrations of the test compound below the lower limit of quantitation (LLOQ: 2–5 ng/mL for plasma and CSF, 1–5 ng/g for brain) were designated as zero. The pharmacokinetic data analysis was performed using noncompartmental, bolus injection or extravascular input analysis models in WinNonlin 5.2 (PharSight). Data below LLOQ were presented as missing to improve validity of T½ calculations.

C56BL/6 mice [2] = assay: Conditioned place preference; conditions: mouse, in vivo
Method: To determine if ‘4042 was inherently rewarding or aversive we used the conditioned place paradigm as described. Briefly, mice were first habituated to the test apparatus, twice, and their preference for each chamber recorded for 30 minutes (Pretest). Two conditioning days followed in which mice received the vehicle control or the compound, and 30 minutes later restricted for 30 minutes in the preferred or non-preferred chamber, respectively. On day 5 (Test day), mice were allowed to roam freely between the 3 chambers of the apparatus and their preference for each chamber recorded for 30 minutes. To calculate the CPP score, we subtracted the time spent in each chamber of the box on the Pretest day from that of the Test day (CPP score = Test - Pretest).

hCB2 [3] = molecular target: T1, hCB2 (Homo sapiens, UniProt P34972); assay: Radioligand competition binding with [3H]-CP-55,940, HEK293 cells stably expressing human CB2R; set-up: expressed in transfected cells; conditions: Fig. S8, read-out: hCB2 pKi (converted)
T1 sequence (P34972 whole entry): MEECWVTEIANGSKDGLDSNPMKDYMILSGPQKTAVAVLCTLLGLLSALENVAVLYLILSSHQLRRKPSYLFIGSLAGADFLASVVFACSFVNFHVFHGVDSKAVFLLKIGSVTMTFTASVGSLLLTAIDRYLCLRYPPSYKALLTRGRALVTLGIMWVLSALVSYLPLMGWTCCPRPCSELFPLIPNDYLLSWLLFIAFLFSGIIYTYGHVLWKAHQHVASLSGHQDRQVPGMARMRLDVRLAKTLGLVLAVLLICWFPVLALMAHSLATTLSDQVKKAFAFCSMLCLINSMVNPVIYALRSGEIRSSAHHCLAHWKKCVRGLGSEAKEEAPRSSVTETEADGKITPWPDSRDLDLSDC
Method: The binding affinities of the compounds were obtained by competition binding using membrane preparations from rat brain (source of CB1) or HEK293 cells stably expressing human CB2R receptors and [^3H]-CP-55,940 as the radioligand, as described. The results were analyzed using nonlinear regression to determine the IC50 and Ki values for each ligand (Prism by GraphPad Software, Inc., San Diego, CA). The Ki values are expressed as the mean of two to three experiments each performed in triplicate.

hCB1 [4] = molecular target: T2, hCB1 (Homo sapiens, UniProt P21554); assay: Cerep HTRF cAMP inhibition assay, hCB1 CHO-K1 cells; assay type: cell-based
T2 sequence (P21554 whole entry): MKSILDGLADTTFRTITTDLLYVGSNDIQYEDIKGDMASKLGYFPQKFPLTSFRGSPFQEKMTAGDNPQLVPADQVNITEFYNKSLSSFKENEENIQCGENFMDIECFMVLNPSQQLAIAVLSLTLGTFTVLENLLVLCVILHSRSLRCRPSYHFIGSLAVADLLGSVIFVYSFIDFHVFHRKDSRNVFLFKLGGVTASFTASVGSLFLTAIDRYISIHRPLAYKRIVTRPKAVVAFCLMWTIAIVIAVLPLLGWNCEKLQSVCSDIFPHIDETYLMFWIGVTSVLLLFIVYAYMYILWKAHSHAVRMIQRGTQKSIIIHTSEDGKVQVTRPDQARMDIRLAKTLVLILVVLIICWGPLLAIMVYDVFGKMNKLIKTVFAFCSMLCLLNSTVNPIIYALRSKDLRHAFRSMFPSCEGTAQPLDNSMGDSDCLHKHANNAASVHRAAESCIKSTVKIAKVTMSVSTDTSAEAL
Method: The hCB1 CHO-K1 cells are suspended in HBSS buffer (Invitrogen) complemented with 20 mM HEPES (pH 7.4), then distributed in microplates at a density of 5.103 cells/well in the presence of either of the following: HBSS (basal control), the reference agonist at 30 nM (stimulated control) or the test compounds. […] Following 30 min incubation at 37°C, the cells are lysed, and the fluorescence acceptor (D2-labeled cAMP) and fluorescence donor (anti-cAMP antibody labeled with europium cryptate) are added. […] Each measurement was done in triplicate.

C56BL/6 mice [5] = assay: CFA-induced inflammatory pain model, Hargreaves test; assay type: in vivo, mouse; conditions: 0.2 mg/kg i.p.
Method: (§1) Hindpaw mechanical thresholds were determined with von Frey filaments using the up-down method. […] Each training has three sessions of five min. each.
The CFA model of chronic inflammation was induced as described previously. Briefly, CFA (Sigma) was diluted 1:1 with saline and vortexed for 30 min. When fully suspended, we injected 20 μL of CFA into one hindpaw. Heat thresholds were measured before the injection (baseline) and 3 days after the injection using the Hargreaves test.

[6] = test system: melatonin-1 (MT1R), ghrelin (GHSR), Sigma1 and peripheral benzodiazepine receptors; assay: PDSP off-target secondary validation (dose response) assays; assay type: cell-based; conditions: read-out: EC50 at off-target receptors (weak partial agonism)
Method: (§2) Compound ‘4042 was tested at 10 μM for off-target activity against a panel of 320 non-olfactory GPCRs using PRESTO-Tango GPCRome arrestin-recruitment assay, as described. Receptors with at least three-fold increased relative luminescence over corresponding basal activity are potential positive hits, and were tested in dose response follow-up studies. Compound ‘4042 was further tested at 1 μM for off-target activity at a panel of 45 common GPCR and non-GPCR drug targets. Receptors with at least 50% displaced radioligand are potential positive hits and were tested in dose response follow-up studies. Screening was performed by the National Institutes of Mental Health Psychoactive Drug Screen Program (PDSP)[81].

C56BL/6 mice [7] = assay: Rotarod test of sedation; assay type: in vivo, mouse; conditions: for dose showing motor deficits: rotarod test
Method: as §1

hCB2 [8] = molecular target: T1, hCB2; assay: Cerep cAMP assay; assay type: cell-based
C56BL/6 mice [9] = assay: Mechanical thresholds (von Frey), SNI model of neuropathic pain and naive mice; assay type: in vivo, mouse
Method: as §1
Under isoflurane anesthesia, two of the three branches of the sciatic nerve were ligated and transected distally, leaving the sural nerve intact. Behavior was tested 7 to 14 days after injury.

hCB1 [10] = molecular target: T2, hCB1; assay: GloSensor cAMP accumulation assay; assay type: cell-based; set-up: host or cells: HEK293 (HEK293SL clone), transient; conditions: for Emax: read-out: hCB1 Glosensor cAMP Emax [95% CI]
Method: The results were analysed using GraphPad Prism 9.1. Each experiment was performed in triplicate and functional IC50 values were determined from the mean of three independent experiments.

GPR55, GPR18, GPR119 = assay: PRESTO-Tango GPCRome arrestin-recruitment screen; assay type: cell-based; conditions: tested at 10 μM
Method: as §2

SMILES: CCCCCCC(C)(C)c1ccc([C@@H]2C[C@H](O)CC[C@H]2CCCO)c(O)c1 [CP-55,940, reference compound]
- Cmax brain [1]: 19.2 ng/g
- plasma Cmax increase compared to ‘4042 [1]: ~10 fold
- half-life ([1]; male, CD-1, mouse, ip): 2.12 h
- conditioned place preference (C56BL/6 mice [2]): may actually induce some aversion

SMILES: COC(=O)C(C)(NC(=O)c1cc(C)n(-c2cccc(C(F)(F)F)c2)n1)c1cccs1 (centres unmarked) [‘4042]
- Ki (hCB2 [3]): 2.51 nM
- EC50 (hCB1 [4]): 0.008 nM
- Emax (hCB1 [4]; CHO-K1, read-out: hCB1 Cerep cAMP Emax [95% CI]): 96%
- effect on paw withdrawal latency after CFA (C56BL/6 mice [5]): analgesic
- EC50 [6]: > 1000 nM
- dose showing motor deficits (C56BL/6 mice [7]): 1.0 mg/kg
- EC50 (hCB2 [8]): 0.0112 nM
- Emax (hCB2 [8]; read-out: hCB2 Cerep cAMP Emax [95% CI]): 72%
- effect on SNI mechanical allodynia (C56BL/6 mice [9]; 0.2 mg/kg i.p.): did not counter the mechanical allodynia
- effect on mechanical thresholds of naïve (non-SNI) animals (C56BL/6 mice [9]; 0.2 mg/kg i.p.): did not alter the mechanical thresholds
- effect on SNI mechanical allodynia (C56BL/6 mice [9]; intrathecal, up to 100 μg/kg): modest anti-allodynic effect
- Cmax brain [1]: 16.8 ng/g
- compartments in which compound was found [1]: appreciably in brain and plasma, but not CSF compartments
- AUC(0-inf) ([1]; male, CD-1, mouse, brain, ip, read-out: AUC0→inf brain tissue (converted)): 53 ng·h/mL
- half-life ([1]; male, CD-1, mouse, ip): 1.9 h
- Cmax ([1]; male, CD-1, mouse, plasma, ip): 5.14 ng/mL and 12 nM
- AUC(0-inf) ([1]; male, CD-1, mouse, plasma, ip, read-out: AUC0→inf plasma (converted)): 22.5 ng·h/mL
- conditioned place preference (C56BL/6 mice [2]): does not induce preference
- EC50 (hCB1 [10]): 0.0398 nM
- Emax (hCB1 [10]): 91%
- agonist activity at putative cannabinoid receptors (GPR55, GPR18, GPR119): no agonist activity

SMILES: COC(=O)[C@@](C)(NC(=O)c1cc(C)n(-c2cccc(C(F)(F)F)c2)n1)c1cccs1 [‘1350]
- window between heat-based response and sedation (C56BL/6 mice [7]; rotarod): only five-fold
- dose showing motor deficits (C56BL/6 mice [7]): 0.5 mg/kg

SMILES: COC(=O)C(NC(=O)c1cc(C)n(-c2cccc(C(F)(F)F)c2)n1)c1cccs1 (centres unmarked) [‘60154]
- EC50 (hCB1 [10]): 25.1 nM
- Emax (hCB1 [10]): 82%
